Key:
Assay in all cases: relative viability (nuclei count vs DMSO), 5 days (fraction); higher = more cells survive
Dinaciclib + Decitabine = compound: CCc1cnn2c(NCc3ccc[n+]([O-])c3)cc(N3CCCC[C@H]3CCO)nc12 [Dinaciclib] + Nc1ncn([C@H]2C[C@H](O)[C@@H](CO)O2)c(=O)n1 [Decitabine] (partner 2 µM)
In short: (§1)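 For relative viability, nuclei counts in treated wells were divided by those in vehicle wells. Lung cancer cell lines had been pin-tool dosed in 1536-well plates the day after seeding and cultured for 5 days, then fixed and stained in one step (final 0.05% Triton X-100, 1% formaldehyde, 1 ug/ml Hoechst) and imaged at 4×. Doses were one drug alone or a fixed anchor-drug dose plus five library-drug doses (not always all listed) in √10 steps, and values are duplicate-plate medians.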

Dinaciclib + Navitoclax = compound: CCc1cnn2c(NCc3ccc[n+]([O-])c3)cc(N3CCCC[C@H]3CCO)nc12 [Dinaciclib] + CC1(C)CCC(c2ccc(Cl)cc2)=C(CN2CCN(c3ccc(C(=O)NS(=O)(=O)c4ccc(N[C@H](CCN5CCOCC5)CSc5ccccc5)c(S(=O)(=O)C(F)(F)F)c4)cc3)CC2)C1 [Navitoclax] (partner 0.5 µM)
In short: as §1

Dinaciclib + Olaparib = compound: CCc1cnn2c(NCc3ccc[n+]([O-])c3)cc(N3CCCC[C@H]3CCO)nc12 [Dinaciclib] + O=C(c1cc(Cc2n[nH]c(=O)c3ccccc23)ccc1F)N1CCN(C(=O)C2CC2)CC1 [Olaparib] (partner 8 µM)
In short: as §1

Dinaciclib + Foretinib = compound: CCc1cnn2c(NCc3ccc[n+]([O-])c3)cc(N3CCCC[C@H]3CCO)nc12 [Dinaciclib] + COc1cc2c(Oc3ccc(NC(=O)C4(C(=O)Nc5ccc(F)cc5)CC4)cc3F)ccnc2cc1OCCCN1CCOCC1 [Foretinib] (partner 0.25 µM)
In short: as §1

Dinaciclib + Dasatinib = compound: CCc1cnn2c(NCc3ccc[n+]([O-])c3)cc(N3CCCC[C@H]3CCO)nc12 [Dinaciclib] + Cc1nc(Nc2ncc(C(=O)Nc3c(C)cccc3Cl)s2)cc(N2CCN(CCO)CC2)n1 [Dasatinib] (partner 0.075 µM)
In short: as §1

Cell Line	relative viability (Dinaciclib + Decitabine; first compound 0.009487 µM)	relative viability (Dinaciclib + Decitabine; first compound 0.03 µM)	relative viability (Dinaciclib + Decitabine; first compound 0.09487 µM)	relative viability (Dinaciclib + Decitabine; first compound 0.3 µM)	relative viability (Dinaciclib + Navitoclax; first compound 0.009487 µM)	relative viability (Dinaciclib + Navitoclax; first compound 0.03 µM)	relative viability (Dinaciclib + Navitoclax; first compound 0.09487 µM)	relative viability (Dinaciclib + Navitoclax; first compound 0.3 µM)	relative viability (Dinaciclib + Olaparib; first compound 0.009487 µM)	relative viability (Dinaciclib + Olaparib; first compound 0.03 µM)	relative viability (Dinaciclib + Olaparib; first compound 0.09487 µM)	relative viability (Dinaciclib + Olaparib; first compound 0.3 µM)	relative viability (Dinaciclib + Foretinib; first compound 0.009487 µM)	relative viability (Dinaciclib + Foretinib; first compound 0.03 µM)	relative viability (Dinaciclib + Foretinib; first compound 0.09487 µM)	relative viability (Dinaciclib + Foretinib; first compound 0.3 µM)	relative viability (Dinaciclib + Dasatinib; first compound 0.009487 µM)	relative viability (Dinaciclib + Dasatinib; first compound 0.03 µM)	relative viability (Dinaciclib + Dasatinib; first compound 0.09487 µM)	relative viability (Dinaciclib + Dasatinib; first compound 0.3 µM)
NCI-H838	0.337	0.162	0.131	0.138	0.901	0.226	0.13	0.118	0.431	0.101	0.0853	0.0924	0.993	0.487	0.125	0.101	0.176	0.173	0.143	0.138
NCI-H3122	0.404	0.117	0.121	0.107	0.973	0.156	0.119	0.142	0.579	0.0996	0.0974	0.0928	1.02	0.131	0.0904	0.0928	0.616	0.0841	0.0766	0.0827
SK-MES-1	0.362	0.157	0.156	0.166	1.26	0.131	0.114	0.119	0.333	0.16	0.139	0.139	0.962	0.189	0.135	0.137	0.217	0.109	0.0863	0.114
NCI-H1944	0.44	0.199	0.137	0.156	1.19	0.67	0.177	0.169	0.395	0.126	0.182	0.108	0.892	0.191	0.152	0.134	0.267	0.117	0.117	0.13
LK-2	0.27	0.119	0.0855	0.0805	0.761	0.123	0.0967	0.102	0.615	0.0883	0.0805	0.0778	1.13	0.267	0.164	0.142	0.267	0.141	0.115	0.144
PC-3 [JPC-3]	0.794	0.671	0.34	0.302	0.764	0.713	0.394	0.2	1.09	0.57	0.321	0.288	1.09	0.93	0.254	0.224	0.991	0.978	0.465	0.194
COR-L23	0.388	0.114	0.0933	0.0952	0.994	0.0863	0.066	0.0652	0.356	0.112	0.0765	0.0765	0.871	0.118	0.0996	0.0936	0.349	0.0817	0.0588	0.0557
NCI-H1355	0.364	0.321	0.174	0.157	0.943	0.159	0.123	0.0999	0.755	0.487	0.133	0.141	1.12	0.268	0.148	0.166	0.815	0.419	0.147	0.159
NCI-H460	0.232	0.0239	0.0139	0.0224	1.05	0.0119	0.0108	0.0098	0.409	0.0325	0.0396	0.0408	0.803	0.0417	0.0257	0.0233	0.453	0.0263	0.0179	0.021
NCI-H1993	0.702	0.462	0.445	0.406	0.799	0.499	–	0.562	1.12	0.755	0.371	0.424	0.922	0.584	0.65	0.544	0.637	0.509	0.481	0.576
ChaGo-K-1	0.531	0.287	0.138	0.128	0.541	0.219	0.173	0.17	0.371	0.145	0.0867	0.0975	0.918	0.245	0.12	0.14	0.529	0.154	0.116	0.127
HCC-15	0.521	0.139	0.13	0.129	0.587	0.244	0.0855	0.0945	0.494	0.199	0.106	0.119	0.652	0.12	0.109	0.107	0.424	0.086	0.0767	0.095
NCI-H23	0.242	0.216	0.14	0.135	0.74	0.173	0.113	0.12	0.206	0.12	0.0827	0.101	0.57	0.187	0.108	0.15	0.647	0.249	0.0991	0.114
NCI-H1395	0.649	0.286	0.286	0.251	1.06	0.263	0.299	0.267	0.469	0.279	0.264	0.32	1.18	0.335	0.269	0.252	0.411	0.289	0.268	0.228
NCI-H1666	0.831	0.487	0.326	0.333	0.848	0.186	0.227	0.244	0.774	0.553	0.484	0.488	0.832	0.318	0.38	0.328	0.617	0.37	0.304	0.264
ABC-1	0.963	0.338	0.297	0.237	–	–	–	–	0.807	0.316	0.272	0.252	0.876	0.166	0.126	0.106	0.466	0.133	0.137	0.0934
NCI-H1703	–	–	–	–	1.19	0.117	0.0887	0.114	0.475	0.0997	0.0838	0.113	0.39	0.319	0.144	0.12	–	–	–	–
NCI-H661	0.472	0.181	0.158	0.196	–	–	–	–	0.664	0.227	0.148	0.147	0.851	0.213	0.202	0.199	0.38	0.144	0.17	0.132
LCLC-103H	0.754	0.648	0.297	0.242	–	–	–	–	0.775	0.361	0.227	0.198	0.834	0.623	0.0915	0.094	0.41	0.432	0.0877	0.0685
NCI-H522	0.688	0.65	0.347	0.326	–	–	–	–	0.573	0.469	0.339	0.204	–	–	–	–	0.979	0.589	0.36	0.319
NCI-H2342	0.78	0.583	0.269	0.284	–	–	–	–	0.391	0.306	0.176	0.192	0.998	0.739	0.273	0.274	0.333	0.289	0.248	0.23
CAL-12T	–	–	–	–	0.487	0.0619	0.0673	0.0743	0.589	0.134	0.13	0.141	1.07	0.105	0.13	0.116	0.11	0.0662	0.082	0.0795
NCI-H650	0.308	0.204	0.118	0.124	–	–	–	–	0.382	0.13	0.12	0.104	1.02	0.182	0.165	0.142	0.36	0.169	0.154	0.164
NCI-H2228	–	–	–	–	0.882	0.174	0.0319	0.0438	0.793	0.181	0.101	0.143	0.87	0.36	0.104	0.11	0.399	0.106	0.0787	0.0912
SW 900	0.408	0.325	0.182	0.151	–	–	–	–	0.749	0.414	0.172	0.166	0.874	0.462	0.0641	0.0639	0.61	0.246	0.0591	0.0806
NCI-H1792	0.522	0.373	0.0508	0.0591	0.678	0.174	0.0483	0.0639	0.425	0.185	0.0516	0.0374	–	–	–	–	0.823	0.631	0.439	0.183
HCC-44	0.804	0.406	0.344	0.317	1.08	0.15	0.149	0.161	1.07	0.556	0.361	0.272	–	–	–	–	–	–	–	–
IA-LM	–	–	–	–	0.695	0.0044	0.0033	0.0072	0.88	0.0461	0.0398	0.0287	1.01	0.0352	0.0148	0.0125	–	–	–	–
NCI-H358	0.157	0.0817	0.075	0.0916	–	–	–	–	0.552	0.0825	0.086	0.105	0.493	0.0864	0.0847	0.0882	0.182	0.0918	0.0845	0.0762
NCI-H1563	–	–	–	–	–	–	–	–	–	–	–	–	1.14	0.504	0.327	0.291	0.448	0.307	0.133	0.123

Reference: the supplement of paper PMC10307832
